Data published in patent US11214556B1, “Method of treating colorectal cancer” (King Abdulaziz University, priority 2019, dated 2022).

Key:
Assay type in all cases: cell-based, human
HCT-116 cells = test: SRB cytotoxicity assay, HCT-116; conditions: SRB assay, 72 h exposure, ± SEM
Protocol: Compounds in this study were tested against colorectal cancer cell line HCT-116, using sulforhodamine-B (SRB) assay. See Skehan, P.; Storeng, R.; Scudiero, D.; Monks, A.; McMahon, J.; Vistica, D.; Warren, J. T.; Bokesch, H.; Kenney, S.; Boyd, M. R., New colorimetric cytotoxicity assay for anticancer-drug screening. J Natl Cancer Inst 1990, 82 (13), 1107-12, incorporated herein by reference in its entirety. […] However, it was clear that compounds bearing hydrophobic aliphatic groups such as MOS-1505 and MOS-1512 are clearly favored in providing anticancer activities. […] The N-aryl substituents were less advantageous in both potency and solubility.
(§1) Different cell lines were originally purchased from American type culture collection (ATCC, Wesel, Germany) and grown in the tissue culture lab of the Egyptian company for production of vaccines, sera and drugs (Vacsera, Giza, Egypt). The cells were transferred to our laboratory and maintained in the appropriate media as following. HCT-116, CACO-2, and HT-29 (human colon cancer cell lines) were maintained in Roswell Park Memorial Institute medium (RPMI1640) (Invitrogen, Carlsbad, Calif.). The mouse skin fibroblasts (C-166) and Baby Hamster Kidney fibroblasts (BHK) were grown in Dulbecco Modified Eagle's medium (DMEM). Both media were supplemented with 1% of […] of streptomycin, 100 units/mL of penicillin and 10% of heat-inactivated fetal bovine serum (Invitrogen, Carlsbad, Calif.) in a humidified, 5% (v/v) CO2 atmosphere at 37° C.
(§2) The sulforhodamine B (SRB) assays were performed according to Skehan, P.; Storeng, R.; Scudiero, D.; Monks, A.; McMahon, J.; Vistica, D.; Warren, J. T.; Bokesch, H.; Kenney, S.; Boyd, M. R., New colorimetric cytotoxicity assay for anticancer-drug screening. J Natl Cancer Inst 1990, 82 (13), 1107-12, incorporated herein by reference in its entirety. Briefly, exponentially growing cells were trypsinized, counted and seeded at the appropriate densities (5000 cells/100 μL/well) into 96-well microtiter plates. Cells were incubated in a humidified atmosphere at 37° C. for 24 h. Then, the cells were exposed to different compounds at the desired concentrations, (0.01, 0.1, 1, 10, and 100 μM) or to 1% dimethyl sulfoxide (DMSO) for 72 h. At the end of the treatment period, the media were removed, and the cells were fixed with 10% trichloroacetic acid at 4° C. for 1 hr. Following, the cells were washed with tap water four times and incubated with SRB 0.4% for 30 min. Excess dye was removed by washing repeatedly with 1% (vol/vol) acetic acid. The protein-bound dye was dissolved in 10 mM Tris base solution for (optical density) OD determination at 510 nm using a SpectraMax plus Microplate Reader (Molecular Devices, CA). Cell viability was expressed relative to the untreated control cells.

CACO-2 cells = test: SRB cytotoxicity assay, CACO-2; conditions: ± SEM
Excerpt: (§3) Based on the favorable pharmacologic and physicochemical properties of MOS-1512, it was selected as a new lead for the second subset of compounds (MOS-1812 to MOS-5112). The compounds in this series contained variable groups at R^1 and R^2 that were all tested against the three cancer cell lines (HCT-116, Caco-2 and HT-29).
as §1, §2

HT-29 cells = test: SRB cytotoxicity assay, HT-29; conditions: 72 h exposure, ± SEM
Excerpt: as §3, §1, §2

[1] = Homo sapiens, Caco-2, 72 h exposure

| Structure (SMILES) | IC50 (HCT-116 cells; Homo sapiens, HCT-116) [µM] | IC50 (CACO-2 cells; [1]) [µM] | IC50 (HT-29 cells; Homo sapiens, HT-29, monolayer) [µM] | IC50 (HCT-116 cells) [µM] | IC50 (CACO-2 cells; 72 h exposure) [µM] | IC50 (HT-29 cells; monolayer) [µM] |
| --- | --- | --- | --- | --- | --- | --- |
| NC(=O)/C(=C/c1ccccc1)NC(=O)/C=C/c1ccccc1 [Compound 1508, N—[(Z)-3-amino-3-oxo-1-phenylprop-1-en-2-yl]-(E)-cinnamamide] | > 100 |  |  |  |  |  |
| CN1CCN(NC(=O)/C(=C/c2ccccc2)NC(=O)/C=C/c2ccccc2)CC1 [Compound 1511, (Z)-2-[(E)-cinnamamido]-N-(4-methyl-1-piperazinyl)-3-phenyl-acrylamide] | > 100 |  |  |  |  |  |
| N#Cc1cccc(NC(=O)/C(=C/c2ccccc2)NC(=O)/C=C/c2ccccc2)c1 [Compound 1513, (Z)-2-[(E)-cinnamamido]-N-(3-cyanophenyl)-3-phenyl-acrylamide] | > 100 |  |  |  |  |  |
| O=C(/C=C/c1ccccc1)N/C(=C\c1ccccc1)C(=O)Nc1ccc(F)cc1 [Compound 1528, (Z)-2-[(E)-cinnamamido]-N-(4-fluorophenyl)-3-phenylacrylamide] | 91.9 ± 4.4 |  |  |  |  |  |
| O=C(/C=C/c1ccccc1)N/C(=C\c1ccccc1)C(=O)NCc1ccco1 [Compound 1530, (Z)-2-[(E)-cinnamamido]-N-(2-furylmethyl)-3-phenyl-acrylamide] | > 100 |  |  |  |  |  |
| O=C(/C=C/c1ccccc1)N/C(=C\c1ccccc1)C(=O)NCCN1CCOCC1 [Compound 1531, (Z)-2-[(E)-cinnamamido]-N-(2-morpholinoethyl)-3-phenyl-acrylamide] | > 100 |  |  |  |  |  |
| O=C(C=Cc1ccccc1)N/C(=C\c1ccccc1)C(=O)N1CCOCC1 [Compound 1536, N—[(Z)-3-morpholino-3-oxo-1-phenylprop-1-en-2-yl]cinnamamide] | > 100 |  |  |  |  |  |
| O=C(C=Cc1ccccc1)N/C(=C\c1ccccc1)C(=O)N1CCCC1 [Compound 1555, N—[(Z)-3-(1-pyrrolidinyl)-3-oxo-1-phenylprop-1-en-2-yl]cinnamamide] | > 100 |  |  |  |  |  |
| CCCCNC(=O)/C(=C/c1ccccc1)NC(=O)/C=C/c1ccccc1 [Compound 1556, (Z)—N-(n-butyl)-2-[(E)-cinnamamido]-3-phenylacrylamide] | 67.2 ± 6.3 |  |  |  |  |  |
| CCC(C)NC(=O)/C(=C/c1ccccc1)NC(=O)C=Cc1ccccc1 (stereo not shown) [Compound 1557, (Z)—N-(sec-butyl)-2-cinnamamido-3-phenylacrylamide] | 52.4 ± 7.1 |  |  |  |  |  |
| CCNC(=O)/C(=C/c1ccccc1)NC(=O)/C=C/c1ccccc1 [Compound 1558, (Z)-2-[(E)-cinnamamido]-N-ethyl-3-phenylacrylamide] | > 100 |  |  |  |  |  |
| CCN(C)C(=O)/C(=C/c1ccccc1)NC(=O)C=Cc1ccccc1 [Compound 1559, (Z)-2-cinnamamido-N-ethyl-N-methyl-3-phenylacrylamide] | 28.8 ± 1 |  |  |  |  |  |
| CCCNC(=O)/C(=C/c1ccccc1)NC(=O)/C=C/c1ccc(Cl)cc1 [Compound 1812, (Z)-2-[(E)-3-(4-chlorophenyl)acrylamido]-3-phenyl-N-propylacrylamide] | 10.3 ± 0.34 | 10.7 ± 0.5 | 7.9 ± 0.43 |  |  |  |
| CCCNC(=O)/C(=C/c1ccccc1)NC(=O)/C=C/c1ccc(OC)cc1 [Compound 1912, (Z)-2-[(E)-3-(4-methoxyphenyl)acrylamido]-3-phenyl-N-propylacrylamide] | 34.1 ± 1.8 | 18.5 ± 1.5 | 55.3 ± 3.2 |  |  |  |
| CCCNC(=O)/C(=C/c1ccccc1)NC(=O)/C=C/c1ccc(C)cc1 [Compound 2012, (Z)-3-phenyl-N-propyl-2-[(E)-3-(p-tolyl)acrylamidolacry]amide] |  |  |  | 35.2 ± 0.54 | 12.7 ± 0.67 | 54.1 ± 0.42 |
| CCCNC(=O)/C(=C/c1ccccc1)NC(=O)/C=C/c1cccs1 [Compound 2112, (Z)-3-phenyl-N-propyl-2-[(E)-3-(thien-2-yl)acrylamidolacry]amide] |  |  |  | 43 ± 1.5 | 27.8 ± 1.3 | 43.2 ± 2.3 |
| CCCNC(=O)/C(=C/c1ccc(F)cc1)NC(=O)C=Cc1ccccc1 [Compound 2212, (Z)-2-cinnamamido-3-(4-fluorophenyl)-N-propylacrylamide] | 15.2 ± 1.2 | 13.2 ± 1 | 7.2 ± 0.31 |  |  |  |
| CCCNC(=O)/C(=C/c1ccc(F)cc1)NC(=O)/C=C/c1ccc(OC)cc1 [Compound 2412, (Z)-3-(4-fluorophenyl)-2-[(E)-3-(4-methoxyphenyl)acrylamido]-N-propylacrylamide] | 29.3 ± 1.2 | 45.7 ± 1.2 | 86.5 ± 2.9 |  |  |  |
| CCCNC(=O)/C(=C/c1ccc(F)cc1)NC(=O)/C=C/c1ccc(C)cc1 [Compound 2512, (Z)-3-(4-fluorophenyl)-N-propyl-2-[(E)-3-(p-tolyl)acrylamidolacry]amide] |  |  |  | 6.7 ± 0.36 | 5.1 ± 0.17 | 11.8 ± 0.18 |
| CCCNC(=O)/C(=C/c1ccc(F)cc1)NC(=O)/C=C/c1cccs1 [Compound 2612, (Z)-3-(4-fluorophenyl)-N-propyl-2-[(E)-3-(thien-2-yl)acrylamidolacry]amide] |  |  |  | 17.3 ± 0.13 | 10.7 ± 0.68 | 7.68 ± 0.05 |
| CCCNC(=O)/C(=C/c1ccc(N(C)C)cc1)NC(=O)C=Cc1ccccc1 [Compound 2712, (Z)-2-cinnamamido-3-[4-(dimethylamino)phenyl]-N-propylacrylamide] | 6.95 ± 0.46 | 4.24 ± 0.09 | 6.8 ± 0.05 |  |  |  |
| CCCNC(=O)/C(=C/c1ccc(N(C)C)cc1)NC(=O)/C=C/c1ccc(OC)cc1 [Compound 2912, (Z)-3-[4-(dimethylamino)phenyl]-2-[(E)-3-(4-methoxyphenyl)acrylamido]-N-propylacrylamide] | 12.4 ± 0.25 | 15.3 ± 0.05 | 36.9 ± 0.25 |  |  |  |
| CCCNC(=O)/C(=C/c1ccc(N(C)C)cc1)NC(=O)/C=C/c1ccc(C)cc1 [Compound 3012, (Z)-3-[4-(dimethylamino)phenyl]-N-propyl-2-[(E)-3-(p-tolyl)acrylamidolacry]amide] |  |  |  | 22.1 ± 0.1 | 29.4 ± 0.08 | 39.6 ± 0.22 |
| CCCNC(=O)/C(=C/c1ccc(N(C)C)cc1)NC(=O)/C=C/c1cccs1 [Compound 3112, (Z)-3-[4-(dimethylamino)phenyl]-N-propyl-2-[(E)-3-(thien-2-yl)acrylamidolacry]amide] |  |  |  | 11.6 ± 0.39 | 27.7 ± 3.7 | 66.5 ± 0.1 |
| CCCNC(=O)/C(=C/c1ccc(O)c(OC)c1)NC(=O)C=Cc1ccccc1 [Compound 3212, (Z)-2-cinnamamido-3-(4-hydroxy-3-methoxyphenyl)-N-propylacrylamide] | > 100 | 6.32 ± 0.02 | 9.14 ± 0.23 |  |  |  |
| CCCNC(=O)/C(=C/c1ccc(O)c(OC)c1)NC(=O)/C=C/c1ccc(Cl)cc1 [Compound 3312, (Z)-2-[(E)-3-(4-chlorophenyl)acrylamido]-3-(4-hydroxy-3-methoxyphenyl)-N-propylacrylamide] | 37.8 ± 1.8 | 6.1 ± 0.44 | 5.4 ± 0.34 |  |  |  |
| CCCNC(=O)/C(=C/c1ccc(O)c(OC)c1)NC(=O)/C=C/c1ccc(OC)cc1 [Compound 3412, (Z)-3-(4-hydroxy-3-methoxyphenyl)-2-[(E)-3-(4-methoxyphenyl)acrylamido]-N-propylacrylamide] | 38.4 ± 2.1 | 18 ± 1.2 | 48.6 ± 0.4 |  |  |  |
| CCCNC(=O)/C(=C/c1ccc(O)c(OC)c1)NC(=O)/C=C/c1ccc(C)cc1 [Compound 3512, (Z)-3-(4-hydroxy-3-methoxyphenyl)-N-propyl-2-[(E)-3-(p-tolyl)acrylamidolacry]amide] |  |  |  | 26.3 ± 1.3 | 20.9 ± 1.1 | 15.1 ± 0.67 |
| O=C/C=C/c1ccccc1 [tCA, trans-cinnamaldehyde, reference compound] | 12.4 ± 1.2 |  |  |  |  |  |
